ChEMBL document CHEMBL5316381, “Discovery of [1,2,3]Triazolo[4,5-c]quinoline Derivatives as a New Class of Ataxia-Telangiectasia Mutated Kinase Inhibitors” (ACS Med Chem Lett, 2023)
Values belong to the compound of their own block, whether it stands above or below them. Active and inactive are the calls of the source. The rule behind the calls is not given here.

Experiments:
[1] = target: T1, Serine-protein kinase ATM (Homo sapiens, UniProt Q13315); experiment: Inhibition of ATM (unknown origin) using GST-cMyc-p53 as substrate incubated for 30 mins in presence of Mg/ATP mix by HTRF-based analysis
SW-620 [2] = experiment: Cell cycle arrest in human SW620 cells assessed as accumulation of cells at G2/M phase at 1 uM incubated for 24 hrs by PI staining based flow cytometric analysis; type: functional
SW-620 [3] = experiment: Induction of apoptosis in human SW620 cells assessed as viable cells at 1 uM measured after 72 hrs by Annexin V-FITC staining based flow cytometric analysis (reference value: 87.36%); type: functional; settings: read-out: Activity
SW-620 [4] = experiment: Induction of apoptosis in human SW620 cells assessed as late apoptotic cells at 1 uM measured after 72 hrs by Annexin V-FITC staining based flow cytometric analysis (reference value: 5.75%); type: functional
HCT-116 = experiment: Anticancer activity against human HCT-116 cells assessed as reduction in cell viability incubated for 5 days by MTT assay; type: functional, cell-based; settings: HCT-116, 120 h
SW-620 [5] = experiment: Induction of apoptosis in human SW620 cells assessed as early apoptotic cells at 1 uM measured after 72 hrs by Annexin V-FITC staining based flow cytometric analysis (reference value: 1.06%); type: functional
[6] = target: T1, Serine-protein kinase ATM; experiment: Inhibition of ATM in human SW620 cells assessed as increase in gamma H2AX foci at 1 uM incubated for 24 hrs by confocal microscopic analysis; type: cell-based
SW-620 [7] = experiment: Anticancer activity against human SW620 cells assessed as reduction in cell viability incubated for 5 days by MTT assay; type: functional, cell-based; settings: SW-620, 120 h
SW-620 [8] = experiment: Induction of apoptosis in human SW620 cells assessed as necrotic cells at 1 uM measured after 72 hrs by Annexin V-FITC staining based flow cytometric analysis (reference value: 5.83%); type: functional
[9] = target: Serine/threonine-protein kinase Chk2 (Homo sapiens) (UniProt O96017); experiment: Inhibition of Chk2 phosphorylation in human SW620 cells with IR-induced DNA damage assessed as fold change in phosphorylated Chk2 protein level at 250 nM in the presence of 1.5 Gy irradiation by Western blot analysis relative to control; type: cell-based
[10] = target: Serine/threonine-protein kinase Chk2 (Homo sapiens) (UniProt O96017); experiment: Inhibition of Chk2 phosphorylation in human SW620 cells with IR-induced DNA damage assessed as fold change in phosphorylated Chk2 protein level at 27 nM in the presence of 3 Gy irradiation by Western blot analysis relative to control; type: cell-based
[11] = target: Serine/threonine-protein kinase Chk2 (Homo sapiens) (UniProt O96017); experiment: Inhibition of Chk2 phosphorylation in human SW620 cells with IR-induced DNA damage assessed as fold change in phosphorylated Chk2 protein level at 3 nM in the presence of 1.5 Gy irradiation by Western blot analysis relative to control; type: cell-based
[12] = target: Serine/threonine-protein kinase Chk2 (Homo sapiens) (UniProt O96017); experiment: Inhibition of Chk2 phosphorylation in human SW620 cells with IR-induced DNA damage assessed as fold change in phosphorylated Chk2 protein level at 3 nM in the presence of 3 Gy irradiation by Western blot analysis relative to control; type: cell-based
SW-620 [13] = experiment: Antiproliferative activity against human SW620 cells assessed as reduction in colony formation at 27 nM measured after 14 days by crystal violet staining based microscopic analysis; type: functional, cell-based; settings: time 14.0 day
SW-620 [14] = experiment: Radiosensitizing activity against human SW620 cells assessed as reduction in colony formation at 27 nM incubated after 14 days in the presence of 3 Gy irradiation by crystal violet staining based analysis; type: functional, cell-based; settings: time 14.0 day
[15] = target: Serine/threonine-protein kinase Chk2 (Homo sapiens) (UniProt O96017); experiment: Inhibition of CPT-11 induced Chk2 phosphorylation in human SW620 cells assessed as fold change in phosphorylated chk2 protein level at 10 nM by SDS-PAGE based Western blot analysis relative to control; type: cell-based
[16] = target: T1, Serine-protein kinase ATM; experiment: Inhibition of ATM phosphorylation in human SW620 cells with IR-induced DNA damage assessed as fold change in phosphorylated ATM protein level at 9 nM in the presence of 3 Gy irradiation by Western blot analysis relative to control; type: cell-based
[17] = target: T1, Serine-protein kinase ATM; experiment: Inhibition of ATM phosphorylation in human SW620 cells with IR-induced DNA damage assessed as fold change in phosphorylated ATM protein level at 27 nM in the presence of 3 Gy irradiation by Western blot analysis relative to control; type: cell-based
[18] = target: Serine/threonine-protein kinase Chk2 (Homo sapiens) (UniProt O96017); experiment: Inhibition of Chk2 phosphorylation in human SW620 cells with IR-induced DNA damage assessed as fold change in phosphorylated Chk2 protein level at 250 nM in the presence of 3 Gy irradiation by Western blot analysis relative to control; type: cell-based
[19] = target: Serine/threonine-protein kinase Chk2 (Homo sapiens) (UniProt O96017); experiment: Inhibition of Chk2 phosphorylation in human SW620 cells with IR-induced DNA damage assessed as fold change in phosphorylated Chk2 protein level at 83 nM in the presence of 1.5 Gy irradiation by Western blot analysis relative to control; type: cell-based
[20] = target: Serine/threonine-protein kinase Chk2 (Homo sapiens) (UniProt O96017); experiment: Inhibition of Chk2 phosphorylation in human SW620 cells with IR-induced DNA damage assessed as fold change in phosphorylated Chk2 protein level at 9 nM in the presence of 1.5 Gy irradiation by Western blot analysis relative to control; type: cell-based
[21] = target: Serine/threonine-protein kinase Chk2 (Homo sapiens) (UniProt O96017); experiment: Inhibition of CPT-11 induced Chk2 phosphorylation in human SW620 cells by SDS-PAGE based Westernblot analysis; type: cell-based
SW-620 [22] = experiment: Radiosensitizing activity against human SW620 cells assessed as reduction in colony formation at 27 nM incubated after 14 days in the presence of 1.5 Gy irradiation by crystal violet staining based analysis; type: functional, cell-based; settings: time 14.0 day
SW-620 [23] = experiment: Radiosensitizing activity against human SW620 cells assessed as reduction in colony formation at 9 nM incubated after 14 days in the presence of 3 Gy irradiation by crystal violet staining based analysis; type: functional, cell-based; settings: time 14.0 day
[24] = target: Serine/threonine-protein kinase Chk2 (Homo sapiens) (UniProt O96017); experiment: Inhibition of Chk2 phosphorylation in human SW620 cells with IR-induced DNA damage assessed as fold change in phosphorylated Chk2 protein level at 9 nM in the presence of 3 Gy irradiation by Western blot analysis relative to control; type: cell-based
[25] = target: Serine/threonine-protein kinase Chk2 (Homo sapiens) (UniProt O96017); experiment: Inhibition of CPT-11 induced Chk2 phosphorylation in human SW620 cells assessed as fold change in phosphorylated chk2 protein level at 30 nM by SDS-PAGE based Western blot analysis relative to control; type: cell-based
[26] = target: Serine/threonine-protein kinase Chk2 (Homo sapiens) (UniProt O96017); experiment: Inhibition of Chk2 phosphorylation in human SW620 cells with IR-induced DNA damage assessed as fold change in phosphorylated Chk2 protein level at 83 nM in the presence of 3 Gy irradiation by Western blot analysis relative to control; type: cell-based
[27] = target: T1, Serine-protein kinase ATM; experiment: Inhibition of ATM phosphorylation in human SW620 cells with IR-induced DNA damage assessed as fold change in phosphorylated ATM protein level at 83 nM in the presence of 3 Gy irradiation by Western blot analysis relative to control; type: cell-based
[28] = target: T1, Serine-protein kinase ATM; experiment: Inhibition of ATM phosphorylation in human SW620 cells with IR-induced DNA damage assessed as fold change in phosphorylated ATM protein level at 250 nM in the presence of 3 Gy irradiation by Western blot analysis relative to control; type: cell-based
[29] = target: Serine/threonine-protein kinase Chk2 (Homo sapiens) (UniProt O96017); experiment: Inhibition of Chk2 phosphorylation in human SW620 cells with IR-induced DNA damage assessed as fold change in phosphorylated Chk2 protein level at 27 nM in the presence of 1.5 Gy irradiation by Western blot analysis relative to control; type: cell-based
SW-620 [30] = experiment: Radiosensitizing activity against human SW620 cells assessed as reduction in colony formation at 9 nM incubated after 14 days in the presence of 1.5 Gy irradiation by crystal violet staining based analysis; type: functional, cell-based; settings: time 14.0 day
[31] = target: T1, Serine-protein kinase ATM; experiment: Inhibition of ATM phosphorylation in human SW620 cells with IR-induced DNA damage assessed as fold change in phosphorylated ATM protein level at 3 nM in the presence of 3 Gy irradiation by Western blot analysis relative to control; type: cell-based
[32] = target: Serine/threonine-protein kinase Chk2 (Homo sapiens) (UniProt O96017); experiment: Inhibition of CPT-11 induced Chk2 phosphorylation in human SW620 cells assessed as fold change in phosphorylated chk2 protein level at 3 nM by SDS-PAGE based Western blot analysis relative to control; type: cell-based
[33] = target: Serine/threonine-protein kinase Chk2 (Homo sapiens) (UniProt O96017); experiment: Inhibition of CPT-11 induced Chk2 phosphorylation in human SW620 cells assessed as fold change in phosphorylated chk2 protein level at 1 nM by SDS-PAGE based Western blot analysis relative to control; type: cell-based
SW-620 [34] = experiment: Antiproliferative activity against human SW620 cells assessed as reduction in colony formation at 9 nM measured after 14 days by crystal violet staining based microscopic analysis; type: functional, cell-based; settings: time 14.0 day

T1 sequence (Q13315 whole entry): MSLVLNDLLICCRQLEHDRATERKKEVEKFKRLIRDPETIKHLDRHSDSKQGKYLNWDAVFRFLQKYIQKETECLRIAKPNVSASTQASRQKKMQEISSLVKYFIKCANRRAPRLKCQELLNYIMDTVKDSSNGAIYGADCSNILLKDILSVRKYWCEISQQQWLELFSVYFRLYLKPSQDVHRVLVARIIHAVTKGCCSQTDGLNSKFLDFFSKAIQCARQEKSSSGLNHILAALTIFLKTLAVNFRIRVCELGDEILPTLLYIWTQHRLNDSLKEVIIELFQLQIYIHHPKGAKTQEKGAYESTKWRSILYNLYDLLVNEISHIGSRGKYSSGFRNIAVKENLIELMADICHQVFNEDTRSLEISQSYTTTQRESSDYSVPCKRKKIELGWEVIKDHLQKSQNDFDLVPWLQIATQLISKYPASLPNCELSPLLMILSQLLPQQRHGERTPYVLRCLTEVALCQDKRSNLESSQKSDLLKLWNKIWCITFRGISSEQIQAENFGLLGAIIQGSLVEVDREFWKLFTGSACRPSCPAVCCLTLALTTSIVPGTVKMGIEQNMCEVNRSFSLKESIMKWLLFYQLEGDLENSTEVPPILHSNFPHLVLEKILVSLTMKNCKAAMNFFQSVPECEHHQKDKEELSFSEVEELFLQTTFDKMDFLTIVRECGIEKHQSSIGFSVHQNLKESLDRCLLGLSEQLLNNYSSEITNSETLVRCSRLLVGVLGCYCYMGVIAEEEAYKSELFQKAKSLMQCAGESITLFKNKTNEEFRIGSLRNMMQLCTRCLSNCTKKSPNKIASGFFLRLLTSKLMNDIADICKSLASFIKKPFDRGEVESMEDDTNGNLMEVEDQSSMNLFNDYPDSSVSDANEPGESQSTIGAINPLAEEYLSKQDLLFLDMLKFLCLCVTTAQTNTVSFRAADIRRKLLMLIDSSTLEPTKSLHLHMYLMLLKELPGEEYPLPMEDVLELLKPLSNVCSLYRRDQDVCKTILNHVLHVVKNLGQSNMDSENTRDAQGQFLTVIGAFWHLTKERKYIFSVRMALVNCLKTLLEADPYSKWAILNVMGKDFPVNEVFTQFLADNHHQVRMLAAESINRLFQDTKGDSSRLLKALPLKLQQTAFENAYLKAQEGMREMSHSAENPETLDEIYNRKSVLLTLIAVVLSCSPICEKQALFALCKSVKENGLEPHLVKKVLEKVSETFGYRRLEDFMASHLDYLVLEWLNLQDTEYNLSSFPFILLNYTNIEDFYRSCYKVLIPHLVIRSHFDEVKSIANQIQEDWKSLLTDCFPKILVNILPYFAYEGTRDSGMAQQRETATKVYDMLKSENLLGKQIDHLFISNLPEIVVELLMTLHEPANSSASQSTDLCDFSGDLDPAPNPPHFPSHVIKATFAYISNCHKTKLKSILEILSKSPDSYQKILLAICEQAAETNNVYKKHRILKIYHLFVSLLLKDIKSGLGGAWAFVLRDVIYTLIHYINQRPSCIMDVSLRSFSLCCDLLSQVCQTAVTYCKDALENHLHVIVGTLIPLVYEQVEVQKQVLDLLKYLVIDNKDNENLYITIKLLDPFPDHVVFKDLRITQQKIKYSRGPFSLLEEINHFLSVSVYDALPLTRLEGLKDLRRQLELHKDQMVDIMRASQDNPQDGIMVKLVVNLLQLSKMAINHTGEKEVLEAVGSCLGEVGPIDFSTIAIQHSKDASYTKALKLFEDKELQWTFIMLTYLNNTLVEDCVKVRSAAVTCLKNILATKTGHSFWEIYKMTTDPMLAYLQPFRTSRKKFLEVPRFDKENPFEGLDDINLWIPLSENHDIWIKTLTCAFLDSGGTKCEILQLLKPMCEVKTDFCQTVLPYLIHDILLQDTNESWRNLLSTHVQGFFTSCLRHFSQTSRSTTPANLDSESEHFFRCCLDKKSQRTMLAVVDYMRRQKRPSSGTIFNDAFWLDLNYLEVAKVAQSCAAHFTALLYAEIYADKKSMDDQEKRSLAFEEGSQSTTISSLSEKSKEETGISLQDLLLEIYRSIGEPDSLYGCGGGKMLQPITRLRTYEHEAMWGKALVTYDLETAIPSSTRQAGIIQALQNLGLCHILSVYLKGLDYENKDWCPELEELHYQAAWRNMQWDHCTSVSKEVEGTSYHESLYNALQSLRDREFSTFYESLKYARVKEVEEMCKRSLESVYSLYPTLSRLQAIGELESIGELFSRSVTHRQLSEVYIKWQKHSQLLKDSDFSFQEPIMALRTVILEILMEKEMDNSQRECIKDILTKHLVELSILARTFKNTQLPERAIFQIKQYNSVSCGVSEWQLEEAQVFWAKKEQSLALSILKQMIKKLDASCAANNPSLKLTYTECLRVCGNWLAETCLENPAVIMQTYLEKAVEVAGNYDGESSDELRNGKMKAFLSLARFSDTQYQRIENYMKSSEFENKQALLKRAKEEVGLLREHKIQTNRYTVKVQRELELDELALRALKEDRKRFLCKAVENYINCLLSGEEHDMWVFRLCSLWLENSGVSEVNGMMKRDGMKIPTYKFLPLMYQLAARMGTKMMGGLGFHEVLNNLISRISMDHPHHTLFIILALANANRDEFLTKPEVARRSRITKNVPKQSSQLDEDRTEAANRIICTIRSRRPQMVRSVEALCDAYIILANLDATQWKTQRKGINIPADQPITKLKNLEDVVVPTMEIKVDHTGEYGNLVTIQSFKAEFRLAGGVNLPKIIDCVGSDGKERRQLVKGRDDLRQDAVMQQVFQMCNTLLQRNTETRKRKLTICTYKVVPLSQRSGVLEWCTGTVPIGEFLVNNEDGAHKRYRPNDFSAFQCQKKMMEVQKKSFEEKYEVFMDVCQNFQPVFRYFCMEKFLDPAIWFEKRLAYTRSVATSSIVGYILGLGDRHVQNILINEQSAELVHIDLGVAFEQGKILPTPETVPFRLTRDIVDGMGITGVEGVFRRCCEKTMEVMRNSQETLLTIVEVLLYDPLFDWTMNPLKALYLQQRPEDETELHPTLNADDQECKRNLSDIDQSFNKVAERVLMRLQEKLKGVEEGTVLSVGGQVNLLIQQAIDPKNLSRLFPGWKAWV
Sequence of Serine/threonine-protein kinase Chk2 (Homo sapiens) (O96017 whole entry): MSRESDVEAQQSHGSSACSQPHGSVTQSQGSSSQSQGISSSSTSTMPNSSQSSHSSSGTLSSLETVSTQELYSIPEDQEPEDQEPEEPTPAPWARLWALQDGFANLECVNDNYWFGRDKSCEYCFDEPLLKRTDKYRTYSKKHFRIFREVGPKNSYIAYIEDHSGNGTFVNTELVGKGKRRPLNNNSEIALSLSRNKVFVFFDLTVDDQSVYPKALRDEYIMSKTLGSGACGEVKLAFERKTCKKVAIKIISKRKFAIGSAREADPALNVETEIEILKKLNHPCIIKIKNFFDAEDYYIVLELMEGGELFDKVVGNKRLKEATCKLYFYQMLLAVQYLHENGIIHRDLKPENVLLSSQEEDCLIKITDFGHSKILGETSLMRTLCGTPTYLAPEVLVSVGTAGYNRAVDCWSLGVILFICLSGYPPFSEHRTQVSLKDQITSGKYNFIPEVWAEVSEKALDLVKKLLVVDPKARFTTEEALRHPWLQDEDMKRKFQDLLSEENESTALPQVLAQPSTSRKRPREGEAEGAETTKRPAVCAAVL

IC50 [1]: 13 nM
SMILES: COc1ccc(-c2ccc3ncc4nnn([C@H](C)c5ccccc5)c4c3c2)cn1

IC50 [1]: 2 nM
SMILES: C[C@H](c1ccccc1)n1nnc2cnc3ccc(-c4ccc(N)nc4)cc3c21

IC50 [1]: 71 nM
SMILES: C[C@H](c1ccccc1)n1nnc2cnc3ccc(-c4ccc(N5CCCC5)nc4)cc3c21

IC50 [1]: 2 nM
SMILES: C[C@H](c1ccccc1)n1nnc2cnc3ccc(-c4ccc(OCCCN5CCCC5)nc4)cc3c21

IC50 [1]: 25 nM
SMILES: C[C@H](c1ccccc1)n1nnc2cnc3ccc(-c4ccc(O)nc4)cc3c21

IC50 [1]: 6 nM
SMILES: C[C@H](c1ccccc1)n1nnc2cnc3ccc(-c4ccc(N5CCN(C)CC5)nc4)cc3c21

IC50 [1]: 166 nM
SMILES: CNCCCOc1ccc(-c2ccc3ncc4nnn([C@H](C)c5ccccc5)c4c3c2)cn1

IC50 [1]: 35 nM
SMILES: Cc1ccc(-c2ccc3ncc4nnn([C@H](C)c5ccccc5)c4c3c2)cn1

IC50 [1]: 174 nM
SMILES: C[C@H](c1ccccc1)n1nnc2cnc3ccc(-c4ccc(F)cc4)cc3c21

IC50 (HCT-116): 910 nM
inhibition [6]: Active
IC50 (SW-620 [7]): 140 nM
SMILES: CCc1c2c(nc3ccc(OC(=O)N4CCC(N5CCCCC5)CC4)cc13)-c1cc3c(c(=O)n1C2)COC(=O)[C@]3(O)CC [IRINOTECAN]
Activity (SW-620 [2]): Active
viability at 1 µM (SW-620 [3]): 67.3%
Activity (SW-620 [4]): 21.89%
Activity (SW-620 [5]): 4.61%
Activity (SW-620 [8]): 6.2%

IC50 [1]: 103 nM
SMILES: COc1ccc([C@H](C)n2nnc3cnc4ccc(-c5ccc(N)nc5)cc4c32)cc1

IC50 [1]: 2 nM
SMILES: C[C@H](c1ccccc1)n1nnc2cnc3ccc(-c4ccc(OCCCN5CCCCC5)nc4)cc3c21

IC50 [1]: 225 nM
SMILES: C[C@H](c1ccccc1)n1nnc2cnc3ccc(-c4ccc(C(F)(F)F)nc4)cc3c21

IC50 [1]: 9 nM
SMILES: C[C@H](c1ccccc1)n1nnc2cnc3ccc(-c4cccnc4)cc3c21

IC50 [1]: 15 nM
SMILES: C[C@H](c1ccccc1)n1nnc2cnc3ccc(-c4ccc(N)cc4)cc3c21

IC50 [1]: 79 nM
SMILES: CC[C@@H](c1ccccc1)n1nnc2cnc3ccc(-c4ccc(N)nc4)cc3c21

fold change (FC) [15]: 1.6
inhibition [21]: Dose-Dependent Effect
fold change (FC) [25]: 0.56
fold change (FC) [32]: 1.9
fold change (FC) [33]: 2.5
SMILES: CC(C)n1c(=O)n(C)c2cnc3cc(F)c(-c4ccc(OCCCN5CCCCC5)nc4)cc3c21
fold change (FC) [9]: 0.58
fold change (FC) [10]: 0.6
fold change (FC) [11]: 0.92
fold change (FC) [12]: 4.2
Activity (SW-620 [13]): inactive
Activity (SW-620 [14]): Active
fold change (FC) [16]: 1.34
fold change (FC) [17]: 1
fold change (FC) [18]: 0.25
fold change (FC) [19]: 1
fold change (FC) [20]: 0.92
Activity (SW-620 [22]): Active
Activity (SW-620 [23]): Active
fold change (FC) [24]: 1.8
fold change (FC) [26]: 0.35
fold change (FC) [27]: 0.8
fold change (FC) [28]: 0.61
fold change (FC) [29]: 1.2
Activity (SW-620 [30]): Active
fold change (FC) [31]: 1.36
Activity (SW-620 [34]): inactive

IC50 [1]: 250 nM
SMILES: C[C@@H](c1ccc(F)cc1)n1nnc2cnc3ccc(-c4ccc(N)nc4)cc3c21

IC50 [1]: 53 nM
SMILES: C[C@@H](c1cccc(F)c1)n1nnc2cnc3ccc(-c4ccc(N)nc4)cc3c21
